Literature values, collected in patent EP3854219A1, “EDIBLE AND WATER-SOLUBLE CHEWABLE TOY FOR ANIMALS, IN PARTICULAR FOR THE RELEASE OF ACTIVE INGREDIENTS” (New Project S.r.l., priority 2020, dated 2021).

System: rats
Conditions: oral ingestion

## CO [methanol]
  LD50: 5628 mg/kg
